According to patent publication EP0562731A1, “Substituted pyridinesulfonamide compounds or their salts, process for preparing the same, and herbicides containing the same” (ISHIHARA SANGYO KAISHA, Ltd., priority 1992, dated 1993):

Assays:
Format in all cases: in vivo
[1] = test system: velvet leaf (Abutilon theophrasti); assay: Test Example 2: foliar application pot test, visual herbicidal effect rating, single and combined herbicides; details: velvet leaf 1.2-leaf stage, 25 days after foliar application; further: ranges in brackets are in %
Source text: 1/10000-are pot was filled with upland farming soil and sown with velvet leaf (Abutilon theophrasti). When the plant reached the 1.2-leaf stage, a predetermined amount of the herbicide of the present invention diluted with 5 ℓ of water per are and admixed with 0.1 vol%, based on the aqueous solution, of an agricultural spreader ("Kusa Rino", produced by Nihon Nohyaku Co., Ltd.) was foliarly applied to the plant with a small spray gun. The herbicidal effect was visually observed 25 days after the foliar application and evaluated according to the rating system shown below.

[2] = test system: slender amaranth (Amaranthus viridis); assay: Test Example 1: foliar application pot test, visual growth control rating; set-up: key: 1: the same as in an untreated plot; 10: perfect growth control; details: 1.25 g/a active ingredient, wettable powder, observed 20 to 31 days after application
Source text: (§1) 1/1,500 are [are (a) = 100 m²] pots were filled with upland farming soil, which in the pots was then sown with a variety of plants. The plants grown will be enumerated below.
(§2) When each plant reached a given growth stage (a 1.2- to 3.0-leaf stage for rice, primary leaf to a 0.7-leaf stage for soybean, 2.1- to 3.6-leaf stage for corn, cotyledon to 0.7-leaf stage for cotton, 2.0- to 3.0-leaf stage for wheat, 0.3- to 3.4-leaf stage for cocklebur, 0.3- to 1.6-leaf stage for morning glory, 0.1- to 1.3-leaf stage for prickly sida, 0.1- to 1.3-leaf stage for slender amaranth, 1.5- to 3.2-leaf stage for barnyard glass, and 1.2- to 3.0-leaf stage for large crabgrass), a predetermined amount of the herbicide of the present invention in the form of a wettable powder, weighed out, diluted with 5 ℓ/a of water and admixed with 0.2 or 0.1 vol%, based on the resulting composition, of an agricultural spreader, was foliarly applied to the plant with a small spray gun. The progress of growth of the plant was visually observed 20 to 31 days after the foliar application to evaluate the degree of growth control according to 10 ratings (1: the same as in an untreated plot - 10: perfect growth control).

[3] = test system: morning glory (Ipomoea purpurea); assay: as above; set-up: key: 1: the same as in an untreated plot; 10: perfect growth control; details: 1.25 g/a active ingredient, wettable powder, observed 20 to 31 days after application
Source text: as §1, §2

rice (Oryza sativa) = assay: as above; set-up: key: 1: the same as in an untreated plot; 10: perfect growth control; details: 1.25 g/a active ingredient, wettable powder, observed 20 to 31 days after application
Source text: as §1, §2

[4] = test system: cocklebur (Xanthium strumarium); assay: as above; set-up: key: 1: the same as in an untreated plot; 10: perfect growth control; details: 1.25 g/a active ingredient, wettable powder, observed 20 to 31 days after application
Source text: as §1, §2

soybean (Glycine max) = assay: as above; set-up: key: 1: the same as in an untreated plot; 10: perfect growth control; details: 1.25 g/a active ingredient, wettable powder, observed 20 to 31 days after application
Source text: as §1, §2

[5] = test system: large crabgrass (Digitaria adscendens); assay: as above; set-up: key: 1: the same as in an untreated plot; 10: perfect growth control; details: 1.25 g/a active ingredient, wettable powder, observed 20 to 31 days after application
Source text: as §1, §2

wheat (Triticum) = assay: as above; set-up: key: 1: the same as in an untreated plot; 10: perfect growth control; details: 1.25 g/a active ingredient, wettable powder, observed 20 to 31 days after application
Source text: as §1, §2

[6] = test system: barnyard grass (Echinochloa crus-galli); assay: as above; set-up: key: 1: the same as in an untreated plot; 10: perfect growth control; details: 1.25 g/a active ingredient, wettable powder, observed 20 to 31 days after application
Source text: as §1, §2

[7] = test system: prickly sida (Sida spinosa); assay: as above; set-up: key: 1: the same as in an untreated plot; 10: perfect growth control; details: 1.25 g/a active ingredient, wettable powder, observed 20 to 31 days after application
Source text: as §1, §2

corn (Zea mays) = assay: as above; set-up: key: 1: the same as in an untreated plot; 10: perfect growth control; details: 1.25 g/a active ingredient, wettable powder, observed 20 to 31 days after application
Source text: as §1, §2

Structure (SMILES)	Rating ([1]; 0.02 g/a)	Rating ([1]; 0.04 g/a)	Rating ([1]; 0.08 g/a)	degree of growth control, AM [2]	degree of growth control, IP [3]	degree of growth control, OR (rice (Oryza sativa))	degree of growth control, XA [4]	degree of growth control, GL (soybean (Glycine max))	degree of growth control, DI [5]	degree of growth control, TR (wheat (Triticum))	degree of growth control, EC [6]	degree of growth control, SI [7]	degree of growth control, ZE (corn (Zea mays))	Rating ([1]; 0.25 g/a)	Rating ([1]; 0.5 g/a)	Rating ([1]; 1.00 g/a)
CCOC(=O)c1ccccc1S(=O)(=O)NC(=O)Nc1nc(Cl)cc(OC)n1 [Chlorimuron-ethyl, ethyl 2-[[[[(4-chloro-6-methoxy-2-pyrimidinyl)amino]carbonyl]amino]sulfonyl]benzoate]	6 (60-69)	8 (80-89)	9 (90-99)	–	–	–	–	–	–	–	–	–	–	–	–	–
CCCCN(c1cccc(S(=O)(=O)NC(=O)Nc2nc(C)nc(OC)n2)n1)S(=O)(=O)C(C)C [Compound No. 4]	–	–	–	9	6	8	9	4	3	2	7	6	10	–	–	–
CS(=O)(=O)NC(=O)c1cc(Oc2ccc(C(F)(F)F)cc2Cl)ccc1[N+](=O)[O-] [Fomesafen, 5-[2-chloro-4-(trifluoromethyl)phenoxy]-N-(methylsulfonyl)-2-nitrobenzamide]	–	–	–	–	–	–	–	–	–	–	–	–	–	3 (30-39)	7 (70-79)	7 (70-79)
CCS(=O)(=O)N(c1cccc(S(=O)(=O)NC(=O)Nc2nc(C)nc(OC)n2)n1)C(C)C [compound 6]	–	–	–	9	8	6	7	3	4	3	6	6	10	–	–	–
CCS(=O)(=O)N(c1cccc(S(=O)(=O)NC(=O)Nc2nc(OC)nc(OC)n2)n1)C(C)C [compound 7]	–	–	–	9	6	3	7	3	2	2	2	3	10	–	–	–
CCCN(c1cccc(S(=O)(=O)NC(=O)Nc2nc(OC)nc(OC)n2)n1)S(=O)(=O)CC [compound 8]	–	–	–	7	4	3	6	4	5	3	5	3	5	–	–	–
CCCCN(c1cccc(S(=O)(=O)NC(=O)Nc2nc(C)nc(OC)n2)n1)S(C)(=O)=O [compound 32]	–	–	–	6	5	3	6	3	6	2	3	4	3	–	–	–
COc1nc(C)nc(NC(=O)NS(=O)(=O)c2cccc(N(CC(C)C)S(C)(=O)=O)n2)n1 [compound 33]	–	–	–	6	4	6	3	3	6	3	3	3	2	–	–	–
CCN(c1cccc(S(=O)(=O)NC(=O)Nc2nc(C)nc(OC)n2)n1)S(=O)(=O)CC [compound 37]	–	–	–	9	3	2	4	2	2	1	4	3	3	–	–	–
CCCS(=O)(=O)N(C)c1cccc(S(=O)(=O)NC(=O)Nc2nc(C)nc(OC)n2)n1 [compound 39]	–	–	–	9	5	3	5	4	4	3	3	3	3	–	–	–
CCCCS(=O)(=O)N(CCC)c1cccc(S(=O)(=O)NC(=O)Nc2nc(C)nc(OC)n2)n1 [compound 42]	–	–	–	10	4	6	6	4	5	4	3	3	3	–	–	–
CCCCN(c1cccc(S(=O)(=O)NC(=O)Nc2nc(C)nc(OC)n2)n1)S(=O)(=O)CCCC [compound 43]	–	–	–	5	3	2	6	4	6	3	3	3	3	–	–	–
CCN(c1cccc(S(=O)(=O)NC(=O)Nc2nc(C)nc(OC)n2)n1)S(=O)(=O)CCl [compound 60]	–	–	–	9	7	6	9	4	4	2	6	5	5	–	–	–
CCCCS(=O)(=O)N(CC(C)C)c1cccc(S(=O)(=O)NC(=O)Nc2nc(C)nc(OC)n2)n1 [compound 82]	–	–	–	7	6	4	9	3	3	4	4	1	8	–	–	–
CCN(c1cccc(S(=O)(=O)NC(=O)Nc2nc(OC)nc(OC)n2)n1)S(=O)(=O)CC(F)(F)F [compound 92]	–	–	–	5	10	5	10	7	3	9	6	6	7	–	–	–
